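Briefly, cells in 96-well plates were exposed to five compound concentrations for 48 h, and endpoints were estimated by linear interpolation. Here, GI50 denotes the concentration required for 50% inhibition of growth.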 Calls of active or inactive are those of the source. Cut-off read from the data, not from the text of the source: active = GI50 up to about 1.1 µM and inactive = higher.
Tests used:
Assay in all cases: NCI-60 cell line screen, 48 h
SK-MEL-28 = test system: SK-MEL-28
COLO 205 = test system: COLO 205
A549 = test system: A549
CCRF-CEM = test system: CCRF-CEM
U-251 = test system: U-251
MOLT-4 = test system: MOLT-4
OVCAR-8 = test system: OVCAR-8
SF-539 = test system: SF-539
KM-20L2 = test system: KM-20L2
HT-29 = test system: HT-29
HCT-15 = test system: HCT-15
SN12C = test system: SN12C
UO-31 = test system: UO-31
SNB-19 = test system: SNB-19
NCI-H460 = test system: NCI-H460
TK-10 = test system: TK-10
SNB-75 = test system: SNB-75
SW-620 = test system: SW-620
HOP-62 = test system: HOP-62
K562 = test system: K562
SK-OV-3 = test system: SK-OV-3
DMS-273 = test system: DMS-273
LXFL 529 = test system: LXFL 529
DLD-1 = test system: DLD-1
SNB-78 = test system: SNB-78
HL-60 = test system: HL-60
HCC 2998 = test system: HCC 2998
786-0 = test system: 786-0
ACHN = test system: ACHN
M14 = test system: M14
LOX IMVI = test system: LOX IMVI
SR = test system: SR
NCI-H522 = test system: NCI-H522
RPMI-8226 = test system: RPMI-8226
NCI-H23 = test system: NCI-H23
EKVX = test system: EKVX
M19-MEL = test system: M19-MEL
IGROV-1 = test system: IGROV-1
KM12 = test system: KM12
Malme-3M = test system: Malme-3M
UACC-62 = test system: UACC-62
UACC-257 = test system: UACC-257
NCI-H226 = test system: NCI-H226
A498 = test system: A498
HCT-116 = test system: HCT-116
SF-268 = test system: SF-268
CAKI-1 = test system: CAKI-1
HOP-92 = test system: HOP-92
SK-MEL-2 = test system: SK-MEL-2
OVCAR-4 = test system: OVCAR-4
SF-295 = test system: SF-295
HOP-18 = test system: HOP-18
OVCAR-3 = test system: OVCAR-3
DU-145 = test system: DU-145
OVCAR-5 = test system: OVCAR-5
Hs-578T = test system: Hs-578T
MCF7 = test system: MCF7
PC-3 = test system: PC-3
BT-549 = test system: BT-549
SK-MEL-5 = test system: SK-MEL-5
MDA-N = test system: MDA-N
T47D = test system: T47D
MDA-MB-435 = test system: MDA-MB-435
RXF 393 = test system: RXF 393
MDA-MB-231 = test system: MDA-MB-231
NCI/ADR-RES = test system: NCI/ADR-RES

## COc1cccc(-c2cc(O)c3cc(OC)c(OC)cc3n2)c1
SK-MEL-28
  GI50: > 100 µM (inactive)
COLO 205
  GI50: 39.3 µM (inactive)
A549
  GI50: 47.4 µM (inactive)
CCRF-CEM
  GI50: 31.8 µM (inactive)
U-251
  GI50: 60.5 µM (inactive)
MOLT-4
  GI50: 40.6 µM (inactive)
OVCAR-8
  GI50: 45.2 µM (inactive)
SF-539
  GI50: 26.4 µM (inactive)
KM-20L2
  GI50: 26.6 µM (inactive)
HT-29
  GI50: 20.1 µM (inactive)
HCT-15
  GI50: 52.6 µM
SN12C
  GI50: 68.7 µM (inactive)
UO-31
  GI50: 41.6 µM (inactive)
SNB-19
  GI50: 58.2 µM (inactive)
NCI-H460
  GI50: 30.3 µM (inactive)
TK-10
  GI50: 51.6 µM (inactive)
SNB-75
  GI50: 34.8 µM (inactive)
SW-620
  GI50: 32 µM (inactive)
HOP-62
  GI50: 42.1 µM (inactive)
K562
  GI50: 40.3 µM (inactive)
SK-OV-3
  GI50: 87.3 µM (inactive)
DMS-273
  GI50: 36.3 µM (inactive)
LXFL 529
  GI50: 63.1 µM (inactive)
DLD-1
  GI50: 42.3 µM (inactive)
SNB-78
  GI50: 29.9 µM (inactive)
HL-60
  GI50: 33.1 µM (inactive)
HCC 2998
  GI50: 87.1 µM (inactive)
786-0
  GI50: 46.6 µM (inactive)
ACHN
  GI50: > 100 µM (inactive)
M14
  GI50: 37.9 µM (inactive)
LOX IMVI
  GI50: 64.7 µM (inactive)
SR
  GI50: 56.1 µM (inactive)
NCI-H522
  GI50: 19.8 µM (inactive)
RPMI-8226
  GI50: 45.3 µM (inactive)
NCI-H23
  GI50: 41.1 µM (inactive)
EKVX
  GI50: 97.7 µM (inactive)
M19-MEL
  GI50: 59.8 µM (inactive)
IGROV-1
  GI50: 89.3 µM (inactive)
KM12
  GI50: 24.2 µM (inactive)
Malme-3M
  GI50: 35.7 µM (inactive)
UACC-62
  GI50: 43.6 µM (inactive)
UACC-257
  GI50: 28.9 µM (inactive)

## C/C(=N\N(c1ccccc1)c1ccccc1)c1c(O)cc(C)oc1=O
SK-MEL-28
  GI50: > 100 µM (inactive)
A549
  GI50: 75 µM (inactive)
CCRF-CEM
  GI50: 89.7 µM (inactive)
U-251
  GI50: 22.4 µM (inactive)
MOLT-4
  GI50: 54.2 µM (inactive)
NCI-H226
  GI50: > 100 µM (inactive)
A498
  GI50: > 100 µM (inactive)
HCT-116
  GI50: 45.1 µM (inactive)
OVCAR-8
  GI50: > 100 µM (inactive)
SF-539
  GI50: 67.8 µM (inactive)
KM-20L2
  GI50: > 100 µM (inactive)
HT-29
  GI50: > 100 µM (inactive)
HCT-15
  GI50: 71.3 µM
SN12C
  GI50: > 100 µM (inactive)
SF-268
  GI50: > 100 µM (inactive)
UO-31
  GI50: 25.7 µM (inactive)
SNB-19
  GI50: > 100 µM (inactive)
NCI-H460
  GI50: 46.5 µM (inactive)
TK-10
  GI50: > 100 µM (inactive)
SNB-75
  GI50: > 100 µM (inactive)
SW-620
  GI50: > 100 µM (inactive)
CAKI-1
  GI50: 90.2 µM (inactive)
HOP-62
  GI50: > 100 µM (inactive)
K562
  GI50: 62.7 µM (inactive)
SK-OV-3
  GI50: > 100 µM (inactive)
LXFL 529
  GI50: 78.5 µM (inactive)
HOP-92
  GI50: 46.3 µM (inactive)
DLD-1
  GI50: 76.2 µM (inactive)
SNB-78
  GI50: > 100 µM (inactive)
HL-60
  GI50: > 10 µM (inactive)
HCC 2998
  GI50: > 100 µM (inactive)
SK-MEL-2
  GI50: > 100 µM (inactive)
786-0
  GI50: > 100 µM (inactive)
OVCAR-4
  GI50: 45.1 µM (inactive)
ACHN
  GI50: > 100 µM (inactive)
SF-295
  GI50: > 100 µM (inactive)
M14
  GI50: > 100 µM (inactive)
LOX IMVI
  GI50: > 100 µM (inactive)
SR
  GI50: 56.9 µM (inactive)
NCI-H522
  GI50: > 100 µM (inactive)
NCI-H23
  GI50: 40.1 µM (inactive)
EKVX
  GI50: > 100 µM (inactive)
M19-MEL
  GI50: 81.7 µM (inactive)
KM12
  GI50: > 100 µM (inactive)
Malme-3M
  GI50: > 100 µM (inactive)
UACC-62
  GI50: 54 µM (inactive)
UACC-257
  GI50: 47.8 µM (inactive)
HOP-18
  GI50: > 100 µM (inactive)

## CNC(=O)OCc1c(COC(=O)NC)c(-c2ccc(-c3ccccc3)cc2)n(C)c1C
SK-MEL-28
  GI50: 10.9 µM (inactive)
COLO 205
  GI50: 4.32 µM (inactive)
OVCAR-3
  GI50: 2.54 µM (inactive)
A549
  GI50: 1.9 µM (inactive)
CCRF-CEM
  GI50: 0.502 µM (active)
U-251
  GI50: 1.92 µM (inactive)
DU-145
  GI50: 2.18 µM (inactive)
OVCAR-5
  GI50: 2.35 µM (inactive)
MOLT-4
  GI50: 0.299 µM (active)
Hs-578T
  GI50: 11 µM (inactive)
NCI-H226
  GI50: 7.98 µM (inactive)
A498
  GI50: 0.504 µM (active)
HCT-116
  GI50: 2.64 µM (inactive)
MCF7
  GI50: 2.75 µM (inactive)
OVCAR-8
  GI50: 2.26 µM (inactive)
SF-539
  GI50: 1.86 µM (inactive)
HT-29
  GI50: 2.7 µM (inactive)
HCT-15
  GI50: 2.17 µM
SN12C
  GI50: 0.726 µM (active)
PC-3
  GI50: 2.52 µM (inactive)
SF-268
  GI50: 0.755 µM (active)
UO-31
  GI50: 1.18 µM (inactive)
SNB-19
  GI50: 3.33 µM (inactive)
NCI-H460
  GI50: 0.401 µM (active)
TK-10
  GI50: 3.15 µM (inactive)
SNB-75
  GI50: 2.95 µM (inactive)
SW-620
  GI50: 5.48 µM (inactive)
BT-549
  GI50: 1.21 µM (inactive)
SK-MEL-5
  GI50: 3.1 µM (inactive)
CAKI-1
  GI50: 0.443 µM (active)
HOP-62
  GI50: 2.79 µM (inactive)
K562
  GI50: 0.822 µM (active)
SK-OV-3
  GI50: 2.88 µM (inactive)
MDA-N
  GI50: 4.34 µM (inactive)
HOP-92
  GI50: 2.99 µM (inactive)
T47D
  GI50: 2.39 µM (inactive)
HL-60
  GI50: 0.351 µM (active)
HCC 2998
  GI50: 2.82 µM (inactive)
SK-MEL-2
  GI50: 0.494 µM (active)
786-0
  GI50: 1.56 µM (inactive)
OVCAR-4
  GI50: 3.08 µM (inactive)
ACHN
  GI50: 0.493 µM (active)
SF-295
  GI50: 1.43 µM (inactive)
M14
  GI50: 1.47 µM (inactive)
LOX IMVI
  GI50: 2.19 µM (inactive)
MDA-MB-435
  GI50: 5.41 µM (inactive)
SR
  GI50: 0.116 µM (active)
NCI-H522
  GI50: 1.58 µM (inactive)
RPMI-8226
  GI50: 0.467 µM (active)
RXF 393
  GI50: 0.512 µM (active)
NCI-H23
  GI50: 2.06 µM (inactive)
EKVX
  GI50: 2.44 µM (inactive)
MDA-MB-231
  GI50: 2.69 µM (inactive)
IGROV-1
  GI50: 2.24 µM (inactive)
KM12
  GI50: 8.04 µM (inactive)
Malme-3M
  GI50: 1.15 µM (inactive)
NCI/ADR-RES
  GI50: 2.64 µM (inactive)
UACC-62
  GI50: 1.64 µM (inactive)
UACC-257
  GI50: 6.95 µM (inactive)

Source: ChEMBL document CHEMBL1201862, “PubChem BioAssay data set” (2004)
